Reference: patent US9446039B2, “Aminoheteroaryl compounds as MTH1 inhibitors” (CEMM—FORSCHUNGSZENTRUM FÜR MOLEKULARE MEDIZIN GMBH, priority 2012, dated 2016)

Columns and labels:
Assay type in all cases: binding
[1] = molecular target: SW480 colon carcinoma cells lysate proteins (Homo sapiens, UniProt P23526); settings: PreyGene AHCY
[2] = molecular target: T1, SW480 colon carcinoma cells lysate proteins (Homo sapiens, UniProt P12429); settings: PreyGene ANXA3
T1 sequence (P12429 1-323): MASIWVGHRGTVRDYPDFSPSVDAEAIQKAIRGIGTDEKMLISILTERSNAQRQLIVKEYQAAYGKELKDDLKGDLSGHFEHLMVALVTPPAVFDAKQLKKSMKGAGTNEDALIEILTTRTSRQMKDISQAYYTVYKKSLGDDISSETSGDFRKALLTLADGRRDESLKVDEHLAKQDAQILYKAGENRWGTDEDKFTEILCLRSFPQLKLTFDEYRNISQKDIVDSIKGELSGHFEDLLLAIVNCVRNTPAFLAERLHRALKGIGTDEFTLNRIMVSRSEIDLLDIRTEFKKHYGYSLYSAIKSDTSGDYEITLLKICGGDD

[3] = molecular target: T2, SW480 colon carcinoma cells lysate proteins (Homo sapiens, UniProt P21980); settings: PreyGene TGM2
T2 sequence (P21980 1-687): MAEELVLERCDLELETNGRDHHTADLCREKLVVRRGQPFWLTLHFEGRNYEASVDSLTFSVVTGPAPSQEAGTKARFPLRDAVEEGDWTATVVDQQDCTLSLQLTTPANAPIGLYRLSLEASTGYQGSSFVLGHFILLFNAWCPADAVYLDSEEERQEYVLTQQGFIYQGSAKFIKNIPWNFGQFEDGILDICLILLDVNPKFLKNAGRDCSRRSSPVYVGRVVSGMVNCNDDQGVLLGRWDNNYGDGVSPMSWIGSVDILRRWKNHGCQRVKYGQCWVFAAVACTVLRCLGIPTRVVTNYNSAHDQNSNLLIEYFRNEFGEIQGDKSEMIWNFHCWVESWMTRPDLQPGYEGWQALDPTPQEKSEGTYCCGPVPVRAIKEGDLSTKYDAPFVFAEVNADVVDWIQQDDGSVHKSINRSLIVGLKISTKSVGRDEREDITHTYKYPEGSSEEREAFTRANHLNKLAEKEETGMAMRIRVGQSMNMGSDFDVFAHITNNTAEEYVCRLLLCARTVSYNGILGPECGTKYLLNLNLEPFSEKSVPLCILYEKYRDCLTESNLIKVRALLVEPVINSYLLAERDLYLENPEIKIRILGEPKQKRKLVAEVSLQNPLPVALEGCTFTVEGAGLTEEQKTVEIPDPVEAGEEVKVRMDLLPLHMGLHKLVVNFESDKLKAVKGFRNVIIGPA

[4] = molecular target: SW480 colon carcinoma cells lysate proteins (Homo sapiens, UniProt P23284); settings: PreyGene PPIB
[5] = molecular target: T3, SW480 colon carcinoma cells lysate proteins (Homo sapiens, UniProt Q14847); settings: PreyGene LASP1; SW480 cells
T3 sequence (Q14847 1-261): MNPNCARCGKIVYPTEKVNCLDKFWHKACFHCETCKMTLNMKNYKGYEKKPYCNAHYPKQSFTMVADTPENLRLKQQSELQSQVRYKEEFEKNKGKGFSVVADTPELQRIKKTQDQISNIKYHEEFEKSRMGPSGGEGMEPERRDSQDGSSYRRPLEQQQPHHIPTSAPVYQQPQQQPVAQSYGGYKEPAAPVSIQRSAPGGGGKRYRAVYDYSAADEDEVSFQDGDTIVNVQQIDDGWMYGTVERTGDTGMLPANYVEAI

[6] = molecular target: T4, SW480 colon carcinoma cells lysate proteins (Homo sapiens, UniProt P40926); settings: PreyGene MDH2
T4 sequence (P40926 25-338): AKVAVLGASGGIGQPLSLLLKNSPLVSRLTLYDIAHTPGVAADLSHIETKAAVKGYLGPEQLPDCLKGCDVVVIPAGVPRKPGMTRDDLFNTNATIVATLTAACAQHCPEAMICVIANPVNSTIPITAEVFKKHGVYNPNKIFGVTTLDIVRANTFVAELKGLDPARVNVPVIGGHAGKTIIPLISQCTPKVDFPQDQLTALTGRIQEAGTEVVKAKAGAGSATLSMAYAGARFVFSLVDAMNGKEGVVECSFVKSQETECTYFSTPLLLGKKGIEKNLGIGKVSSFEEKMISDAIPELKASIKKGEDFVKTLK

[7] = molecular target: SW480 colon carcinoma cells lysate proteins (Homo sapiens, UniProt O15372); settings: PreyGene EIF3H
[8] = molecular target: SW480 colon carcinoma cells lysate proteins (Homo sapiens, UniProt Q13283); settings: PreyGene G3BP1; SW480 cells
SW480 colon carcinoma cells lysate proteins (Homo sapiens, UniProt Q13283), sequence (Q13283 whole entry): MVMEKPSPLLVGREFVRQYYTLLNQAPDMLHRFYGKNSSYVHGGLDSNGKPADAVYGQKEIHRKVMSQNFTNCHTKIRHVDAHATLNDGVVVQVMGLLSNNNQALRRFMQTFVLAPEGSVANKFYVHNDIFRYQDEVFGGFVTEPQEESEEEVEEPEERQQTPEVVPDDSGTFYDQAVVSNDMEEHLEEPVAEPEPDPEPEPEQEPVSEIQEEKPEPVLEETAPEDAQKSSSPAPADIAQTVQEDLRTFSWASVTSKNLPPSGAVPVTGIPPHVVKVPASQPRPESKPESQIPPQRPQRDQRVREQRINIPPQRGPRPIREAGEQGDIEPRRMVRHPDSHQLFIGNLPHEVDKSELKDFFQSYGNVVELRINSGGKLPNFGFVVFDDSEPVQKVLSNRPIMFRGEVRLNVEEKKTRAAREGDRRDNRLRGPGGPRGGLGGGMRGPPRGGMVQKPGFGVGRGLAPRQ

SW480 colon carcinoma cells lysate proteins (Homo sapiens, UniProt P23526), sequence (P23526 whole entry): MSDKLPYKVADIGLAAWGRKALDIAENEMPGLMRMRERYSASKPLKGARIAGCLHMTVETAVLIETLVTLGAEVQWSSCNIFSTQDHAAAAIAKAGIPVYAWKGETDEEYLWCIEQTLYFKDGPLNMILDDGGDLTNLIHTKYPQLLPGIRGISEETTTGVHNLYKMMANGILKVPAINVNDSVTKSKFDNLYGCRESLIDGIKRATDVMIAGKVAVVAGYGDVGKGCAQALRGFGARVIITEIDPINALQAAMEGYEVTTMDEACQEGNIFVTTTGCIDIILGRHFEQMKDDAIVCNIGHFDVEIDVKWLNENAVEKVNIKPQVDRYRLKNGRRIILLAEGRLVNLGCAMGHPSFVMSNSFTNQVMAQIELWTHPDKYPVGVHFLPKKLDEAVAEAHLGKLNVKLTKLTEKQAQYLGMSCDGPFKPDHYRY
SW480 colon carcinoma cells lysate proteins (Homo sapiens, UniProt O15372), sequence (O15372 whole entry): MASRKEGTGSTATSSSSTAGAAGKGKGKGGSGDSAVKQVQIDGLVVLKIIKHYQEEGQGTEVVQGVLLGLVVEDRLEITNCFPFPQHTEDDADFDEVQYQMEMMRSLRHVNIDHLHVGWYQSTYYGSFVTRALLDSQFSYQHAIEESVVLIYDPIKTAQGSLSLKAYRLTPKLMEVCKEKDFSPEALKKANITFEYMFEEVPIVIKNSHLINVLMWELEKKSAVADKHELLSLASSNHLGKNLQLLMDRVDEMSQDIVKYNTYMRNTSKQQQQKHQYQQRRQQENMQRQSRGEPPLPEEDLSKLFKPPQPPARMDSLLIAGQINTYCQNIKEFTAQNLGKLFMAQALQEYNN
SW480 colon carcinoma cells lysate proteins (Homo sapiens, UniProt P23284), sequence (P23284 34-216): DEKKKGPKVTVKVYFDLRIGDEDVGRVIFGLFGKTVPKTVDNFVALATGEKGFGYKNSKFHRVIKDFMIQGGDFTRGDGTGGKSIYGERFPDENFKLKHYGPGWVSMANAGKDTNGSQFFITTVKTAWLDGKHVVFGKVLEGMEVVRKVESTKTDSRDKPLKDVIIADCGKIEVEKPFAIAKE

Compound: C[C@H](Oc1cc(-c2cnn(C3CCNCC3)c2)cnc1N)c1c(Cl)ccc(F)c1Cl [(5)-crizotinib]
- AvgP [1]: 0.4716
- SC.Exp. 1-1 [1]: 4
- SC.Exp. 1-2 [1]: 4
- SC.Exp. 2-1 [1]: 0
- SC.Exp. 2-2 [1]: 0
- Sum (SC.Exp.) [1]: 8
- AvgP [2]: 0.461
- SC.Exp. 1-1 [2]: 4
- SC.Exp. 1-2 [2]: 4
- SC.Exp. 2-1 [2]: 0
- SC.Exp. 2-2 [2]: 0
- Sum (SC.Exp.) [2]: 8
- AvgP [3]: 0.2455
- SC.Exp. 1-1 [3]: 6
- SC.Exp. 1-2 [3]: 5
- SC.Exp. 2-1 [3]: 0
- SC.Exp. 2-2 [3]: 0
- Sum (SC.Exp.) [3]: 11
- AvgP [4]: 0.381
- SC.Exp. 1-1 [4]: 2
- SC.Exp. 1-2 [4]: 2
- SC.Exp. 2-1 [4]: 0
- SC.Exp. 2-2 [4]: 0
- Sum (SC.Exp.) [4]: 4
- AvgP [5]: 0
- SC.Exp. 1-1 [5]: 0
- SC.Exp. 1-2 [5]: 1
- SC.Exp. 2-1 [5]: 0
- SC.Exp. 2-2 [5]: 0
- SC.Exp. Sum [5]: 1
- AvgP [6]: 0.4441
- SC.Exp. 1-1 [6]: 5
- SC.Exp. 1-2 [6]: 5
- SC.Exp. 2-1 [6]: 0
- SC.Exp. 2-2 [6]: 0
- Sum (SC.Exp.) [6]: 10
- AvgP [7]: 0.2043
- SC.Exp. 1-1 [7]: 3
- SC.Exp. 1-2 [7]: 0
- SC.Exp. 2-1 [7]: 0
- SC.Exp. 2-2 [7]: 0
- Sum (SC.Exp.) [7]: 3
- AvgP [8]: 0
- SC.Exp. 1-1 [8]: 2
- SC.Exp. 1-2 [8]: 2
- SC.Exp. 2-1 [8]: 3
- SC.Exp. 2-2 [8]: 2
- SC.Exp. Sum [8]: 9
